Publication PMC9188586, “Design, synthesis and evaluation of novel tetrahydropyridothienopyrimidin-ureas as cytotoxic and anti-angiogenic agents” (Scientific Reports, 2022)
Several values for one entry are separate records, joined by “and”; a condition that tells them apart may be missing. Identical values can stand only once.

How the values were obtained:
MCF-7 (breast cancer) = assay: MTT antiproliferative assay, MCF-7; format: cell-based; details: Homo sapiens, MCF7, 48 h incubation
Procedure: (§1) Two series of new tetrahydropyridothienopyrimidines were evaluated for their cytotoxicity against a panel of cell lines, including MCF-7 (breast cancer), SW480 (colon cancer), PC-3 (prostate cancer), HEPG-2 (liver cancer) and HUVEC (human umbilical vein endothelial cell) using 3-(4,5-dimethyl- thiazol-2-yl)-2,5-diphenyltetrazolium bromide (MTT) assay. Sorafenib was used as a positive control. The cytotoxicity is expressed as the concentration that inhibits 50% of cell viability (IC50). […] The preliminary SAR is evaluated on the basis of cytotoxicity results of phenyl derivatives (11a–k) and pyridine derivatives (11l–11y).The mesomeric effect didn’t improve the cytotoxicity of compound 11d in the first series.
(§2) Cytotoxicity of the compounds was measured by detecting the ability of cells in transforming MTT into a purple formazan dye. The different cell lines were provided by the National Cell Bank of Iran (Pastor Institute, Tehran, Iran). The required materials and reagents were purchased from Sigma. After the cell culture in RPMI-1640 medium and DMEM containing 10% FBS (Gibco, Milano, Italy), the suspension of MCF-7 (7000) and other cells (5000) were poured into 96 well plates and incubated in a humidified incubator containing 5% CO2 at 37 °C for 24 h. Subsequently, a solution of the compounds in DMSO was added to these plates and incubated for 48 h. After incubation, the solution of 5% 3-(4,5-Dimethyl-2-thiazolyl)-2,5-diphenyl-2H-tetrazolium bromide (MTT) was added to all the wells and incubation was continued for another 4 h. The record of color intensity of the formazan solution was at 570 nm by Bio-Rad microplate reader (Model 680) which reflects the cell growth condition.

PC-3 (prostate cancer) = assay: MTT antiproliferative assay, PC-3; format: cell-based; details: 48 h incubation
Procedure: as §1, §2

SW480 (colon cancer) = assay: MTT antiproliferative assay, SW480; format: cell-based; details: Homo sapiens, SW480, 48 h incubation
Procedure: as §1, §2

HEPG-2 (liver cancer) = assay: MTT antiproliferative assay, HEPG-2; format: cell-based; details: Homo sapiens, HepG2, 48 h incubation
Procedure: as §1, §2

[1] = system: HUVEC (human umbilical vein endothelial cell); assay: MTT antiproliferative assay, HUVEC; format: cell-based; details: Homo sapiens, HUVEC; MTT assay, 48 h incubation
Procedure: as §1, §2

MRC5 normal cell line = assay: MTT cytotoxicity against normal cell line MRC5; format: cell-based; details: for IC50: Homo sapiens, MRC5, MTT assay, normal cell line; for SI (Selectivity Index): IC50 value normal cell (MRC5)/IC50 value cancer cell (MCF-7)
Procedure: as §2

HUVEC cells [2] = assay: Annexin V/PI flow cytometry apoptosis analysis, HUVEC; format: cell-based, human; details: IC50 concentration; for Early apoptotic cells (Q3) / Late apoptotic cells (Q2): 48 h, one replicate
Procedure: (§3) The experiment was conducted by flow cytometry analysis of […] cells with propidium iodide (PI) and annexin V-fluorescein isothiocyanate (annexine V-FITC).
(§4) Then, cells were trypsinized, rinsed with phosphate-bufferede buffered saline (PBS) and then centrifuged at 1200 rpm for 3 min. After this, the binding buffer (500 μL) was added to the resulting cells, followed by addition and mixing with […] and PI (5 μL). After this, the samples were incubated in dark for 10 to 15 min at room temperature, and then the cellular analysis was measured by flow cytometer (FACS Calibur Bectone-Dickinson).

MCF-7 cells [3] = assay: Annexin V/PI flow cytometry apoptosis analysis, MCF-7; format: cell-based; details: MCF-7, IC50 concentration
Procedure: as §3, §4

[4] = system: chick chorioallantoic membrane (CAM); assay: Chick chorioallantoic membrane (CAM) anti-angiogenic assay; format: in vivo; details: IC50 concentration, compared with Sorafenib as positive control
Procedure: The hydrogen bonding between NH groups of urea and target proteins were known to give rise to better inhibition of an important growth factor receptor (VEGFR-2) involved in the process of angiogenesis. Thus, the chick chorioallantoic membrane (CAM) assay was utilized as an in-vivo technique to evaluate the anti-vascular effects. Therefore, the anti-angiogenic strength of compounds were investigated by a cheap and simple CAM assay (Figs. 4, 5)[32],[33]. The anti-angiogenic strength was measured and compared with DMSO (control) and Sorafenib as a positive control.
All eggs were supplied from (Poultry Breeding Farm, Tehran, Iran). Since the allantois of the chick embryo appears at about 3.5 days of incubation, the corresponding eggs were incubated (37.5 °C, relative humidity: 55–65%). To decrease the risk of infection, the particular regions of the egg, e.g., the front side of the embryo were cleaned and sterilized with 70% EtOH. On the 6th incubation day, a false air sac was created directly over the CAM, permitting its detachment from the shell membrane. The procedure was continued through a square incision over the CAM. The prepared window in a square form (1 × 1 cm), was covered by a flexible film and then transported to the incubator. On the 8th incubation day, the particular paper discs (Whatman) were coated with target agents and placed in the central area of the corresponding window. The surface of CAM was visually evaluated on the 12th incubation day using the stereomicroscope. We decided to use the number and the length of capillary blood vessels as the index of anti-angiogenic activity. Consequently, the prepared images were analyzed by the advantageous software, Image J[22],[23].

MCF-7 cells [5] = assay: Cell cycle analysis by flow cytometry, MCF-7; format: cell-based; details: MCF-7, IC50 concentration, 48 h
Procedure: (§5) We can conclude that compound 11n induces cellular apoptosis in […]. An increase in sub-G1 area is an indicative of apoptosis.
(§6) After trypsinization and rinsing with PBS, the cells were centrifuged at 1200 rpm for 5 min and then incubated with PBS and fixed in ice-cooled 70% ethanol. After washing with PBS, the cells were resuspended in RNase A (0.1 mg/mL) and incubated for 5 h. Then, staining with PI ([…]) and incubation for 15 min were performed. By using Novocyte flow cytometer (ACEA Biosciences) the analysis was done and the calculation of cell cycle distributions was done by NovoExpress 1.1.0 software.

HUVEC and MCF-7 cells = assay: Cell cycle analysis by flow cytometry, cell line not given; format: cell-based; details: cell line not stated, IC50 concentration, 48 h
Procedure: An increase in sub-G1 area is an indicative of apoptosis.
as §6

caspase-3 = assay: Caspase-3 level by ELISA in MCF-7 cells; format: cell-based, human; details: 24 h; for Casp3 conc.: 11n at 2.67 μM, Sorafenib at 7.06 μM
Procedure: The activity of caspase (cysteinyl-aspartate-specific proteases) as intracellular cell death enzymes has been characterized. So, the […] the process[28]–[31].
Caspase-3 activity was measured using a caspase-3 (Active) (human) ELISA kit, MBS450774, according to the manufacturer’s instructions.

HUVEC cells [6] = assay: Cell cycle analysis by flow cytometry, HUVEC; format: cell-based, human; details: IC50 concentration, 48 h
Procedure: as §5, §6

VEGFR-2 = target: T1, VEGFR-2 (Homo sapiens, UniProt P35968); assay: Western blot of VEGFR-2 phosphorylation in HUVECs; format: cell-based; details: HUVEC, IC50 concentration, after 48 and 72 h, compared to positive control
T1 construct: endogenous in cells; host or cells: HUVEC
T1 sequence (P35968 20-1356): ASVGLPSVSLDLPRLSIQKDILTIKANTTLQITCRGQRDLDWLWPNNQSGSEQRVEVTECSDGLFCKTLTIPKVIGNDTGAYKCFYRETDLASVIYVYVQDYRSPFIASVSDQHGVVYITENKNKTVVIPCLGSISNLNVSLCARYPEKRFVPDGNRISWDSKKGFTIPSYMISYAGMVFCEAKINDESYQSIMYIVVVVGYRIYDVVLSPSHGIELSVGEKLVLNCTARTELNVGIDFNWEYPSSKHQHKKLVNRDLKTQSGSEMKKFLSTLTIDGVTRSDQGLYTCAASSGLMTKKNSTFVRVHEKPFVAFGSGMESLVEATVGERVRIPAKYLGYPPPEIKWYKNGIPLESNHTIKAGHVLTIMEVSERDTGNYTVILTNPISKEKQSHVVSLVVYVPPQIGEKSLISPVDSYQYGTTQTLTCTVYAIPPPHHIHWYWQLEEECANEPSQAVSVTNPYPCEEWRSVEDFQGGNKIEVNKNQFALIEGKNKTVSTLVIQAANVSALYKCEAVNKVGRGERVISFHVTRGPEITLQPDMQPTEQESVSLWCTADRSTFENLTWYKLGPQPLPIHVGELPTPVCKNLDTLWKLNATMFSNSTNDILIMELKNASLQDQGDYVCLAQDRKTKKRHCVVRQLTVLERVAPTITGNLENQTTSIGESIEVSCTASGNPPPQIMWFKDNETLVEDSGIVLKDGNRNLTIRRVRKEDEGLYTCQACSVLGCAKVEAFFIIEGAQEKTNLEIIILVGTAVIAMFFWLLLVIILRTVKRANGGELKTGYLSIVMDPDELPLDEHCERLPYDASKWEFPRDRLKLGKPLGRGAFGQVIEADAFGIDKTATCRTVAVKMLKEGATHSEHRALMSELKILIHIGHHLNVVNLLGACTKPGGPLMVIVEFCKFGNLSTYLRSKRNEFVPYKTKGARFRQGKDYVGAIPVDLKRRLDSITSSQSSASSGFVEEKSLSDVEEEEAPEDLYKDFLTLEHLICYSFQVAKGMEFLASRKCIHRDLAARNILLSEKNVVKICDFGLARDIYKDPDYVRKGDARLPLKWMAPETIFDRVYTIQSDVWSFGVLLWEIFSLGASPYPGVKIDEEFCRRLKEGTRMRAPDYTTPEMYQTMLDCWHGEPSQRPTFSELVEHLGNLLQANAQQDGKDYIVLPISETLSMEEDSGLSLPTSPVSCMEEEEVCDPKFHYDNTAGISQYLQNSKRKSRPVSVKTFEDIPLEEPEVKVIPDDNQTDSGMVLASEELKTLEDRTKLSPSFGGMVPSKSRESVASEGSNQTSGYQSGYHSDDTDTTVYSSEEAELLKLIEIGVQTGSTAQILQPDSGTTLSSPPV
Procedure: It was is observed that, after 48 and 72 h, the phosphorylation of VEGFR-2 decreases compared to the positive control (Fig. 7).
After thawing in […] lysis buffer and centrifuge at 1200 rpm, the loading and electrophoresis of proteins on 12% SDSPAGE was performed. Then, they transferred for 1.5 h at 100 V into a nitrocellulose membrane ([…]) and blocked with 5% blocking buffer. After incubation of antibodies at 4 ◦C for 12 h, the detection of immunoblots were performed using the enhanced chemiluminescence (ECL) method.

Compound | IC50 (MCF-7 (breast cancer)) [µM] | IC50 (PC-3 (prostate cancer)) [µM] | IC50 (SW480 (colon cancer)) [µM] | IC50 (HEPG-2 (liver cancer)) [µM] | IC50 [1] [µM] | IC50 (MRC5 normal cell line) [µM] | SI (Selectivity Index) (MRC5 normal cell line) | melting point [°C] | Inhibitory effect on growing CAM (in words) [4] | Early apoptotic cells (Q3) (HUVEC cells [2]) [%] | Late apoptotic cells (Q2) (HUVEC cells [2]) [%] | other results
Cc1cccc(NC(=O)Nc2nnc(Sc3ncnc4sc5c(c34)CCN(Cc3ccccc3)C5)s2)c1 [Compound 11b, 1-(5-((7-benzyl-5,6,7,8-tetrahydropyrido[4',3':4,5]thieno[2,3-d]pyrimidin-4-yl)thio)-1,3,4-thiadiazol-2-yl)-3-(m-tolyl)urea] | 8.22 ± 0.09 | 46.8 ± 1.49 | 67.7 ± 2.53 | 48.1 ± 0.22 | 18.89 ± 0.09 | 32.1 ± 0.92 | 3.9 | 138 to 139 | – | – | – | Apoptosis induction (in words) (HUVEC cells [2]): unable to induce apoptosis; Apoptosis induction (in words) (MCF-7 cells [3]): unable to induce apoptosis
O=C(Nc1ccc(Cl)c(Cl)c1)Nc1nnc(Sc2ncnc3sc4c(c23)CCN(Cc2ccccc2)C4)s1 [Compound 11h, 1-(5-((7-benzyl-5,6,7,8-tetrahydropyrido[4',3':4,5]thieno[2,3-d]pyrimidin-4-yl)thio)-1,3,4-thiadiazol-2-yl)-3-(3,4-dichlorophenyl)urea] | 8.52 ± 0.02 | 70.2 ± 1.92 | 64.2 ± 2.2 | 53.71 ± 0.5 | 7.44 ± 0.06 | 41.2 ± 0.45 | 4.8 | 190 to 192 | slightly weaker inhibitory effects | – | – | Apoptosis induction (in words) (HUVEC cells [2]): unable to induce apoptosis; Apoptosis induction (in words) (MCF-7 cells [3]): unable to induce apoptosis
Cc1ccccc1NC(=O)Nc1nnc(Sc2ncnc3sc4c(c23)CCN(Cc2ccncc2)C4)s1 [Compound 11l, 1-(5-((7-(pyridin-4-ylmethyl)-5,6,7,8-tetrahydropyrido[4',3':4,5]thieno[2,3-d]pyrimidin-4-yl)thio)-1,3,4-thiadiazol-2-yl)-3-(o-tolyl)urea] | 2.8 ± 0.03 | 6.11 ± 0.08 | 15 ± 0.38 | 9.94 ± 0.07 | 2.53 ± 0.05 | 24.8 ± 0.36 | – | – | – | 5.51 | 89.0 | Percentage of cell population in the S phase (MCF-7 cells [5]): 49.8%; Percentage of cells in G0 phase (HUVEC and MCF-7 cells): 97.6%
Cc1cccc(NC(=O)Nc2nnc(Sc3ncnc4sc5c(c34)CCN(Cc3ccncc3)C5)s2)c1 [Compound 11m, 1-(5-((7-(pyridin-4-ylmethyl)-5,6,7,8-tetrahydropyrido[4',3':4,5]thieno[2,3-d]pyrimidin-4-yl)thio)-1,3,4-thiadiazol-2-yl)-3-(m-tolyl)urea] | 3.35 ± 0.01 | 11.79 ± 0.11 | 61.23 ± 0.44 | 27.76 ± 0.13 | 1.15 ± 0.03 | 33.2 ± 0.44 | – | – | slightly weaker inhibitory effects | 10.1 | 52.5 | Percentage of cell population in the S phase (MCF-7 cells [5]): 32.9%
Cc1ccc(NC(=O)Nc2nnc(Sc3ncnc4sc5c(c34)CCN(Cc3ccncc3)C5)s2)cc1 [Compound 11n, 1-(5-((7-(pyridin-4-ylmethyl)-5,6,7,8-tetrahydropyrido[4',3':4,5]thieno[2,3-d]pyrimidin-4-yl)thio)-1,3,4-thiadiazol-2-yl)-3-(p-tolyl)urea] | 2.67 ± 0.21 | 11.35 ± 0.09 | 6.84 ± 0.05 | 7.2 ± 0.03 | 2.09 ± 0.08 | 38.1 ± 0.81 | 14 and 14.2 | – | slightly weaker inhibitory effects | 16.5 | 79.8 | Early apoptotic cells (Q3) (MCF-7 cells [3]; 48 h, one replicate): 22.8%; Late apoptotic cells (Q2) (MCF-7 cells [3]; 48 h, one replicate): 58.2%; Casp3 conc. (caspase-3): 3.63 ± 0.52 ng/mL; FLD (fold change of caspase-3 level) (caspase-3; control = 1): 5.2 fold; Percentage of cells in G0 phase (MCF-7 cells [5]): 54.3%; Percentage of cells in G0 phase (HUVEC cells [6]): 65.5%; Phosphorylation of VEGFR-2 (in words) (VEGFR-2): decreases
O=C(Nc1cccc(C(F)(F)F)c1)Nc1nnc(Sc2ncnc3sc4c(c23)CCN(Cc2ccncc2)C4)s1 [Compound 11x, 1-(5-((7-(pyridin-4-ylmethyl)-5,6,7,8-tetrahydropyrido[4',3':4,5]thieno[2,3-d]pyrimidin-4-yl)thio)-1,3,4-thiadiazol-2-yl)-3-(3-(trifluoromethyl)phenyl)urea] | 9.36 ± 0.06 | 32.9 ± 0.61 | 60.55 ± 0.41 | 44.6 ± 0.52 | 9.15 ± 0.02 | – | – | 241 to 243 | – | – | – | –
O=C(Nc1ccc(Cl)c(C(F)(F)F)c1)Nc1nnc(Sc2ncnc3sc4c(c23)CCN(Cc2ccncc2)C4)s1 [Compound 11y, 1-(4-chloro-3-(trifluoromethyl)phenyl)-3-(5-((7-(pyridin-4-ylmethyl)-5,6,7,8-tetrahydropyrido[4',3':4,5]thieno[2,3-d]pyrimidin-4-yl)thio)-1,3,4-thiadiazol-2-yl)urea] | 20.48 ± 0.11 | 4.37 ± 0.06 | 45.69 ± 0.06 | 71.6 ± 3.24 | 57.1 ± 0.61 | – | – | 257 to 260 | – | – | – | –
CNC(=O)c1cc(Oc2ccc(NC(=O)Nc3ccc(Cl)c(C(F)(F)F)c3)cc2)ccn1 [Sorafenib, reference compound] | 7.06 ± 0.17 | 5.45 ± 0.11 | 19.8 ± 0.12 | 29.6 ± 0.31 | 2.81 ± 0.71 | – | – | – | – | – | – | Casp3 conc. (caspase-3): 4.54 ± 0.25 ng/mL
